Test results published in patent publication US6111069A, “Polypeptides that include conformation-constraining groups which flank a protein-protein interaction site” (Virginia Commonwealth University, priority 1997, dated 2000).
Where a SMILES comes first, the peptide text is derived from it.

Legend:
[1] = Preliminary studies of hypotensive peptide versus diltiazem (diastolic pressure, arrhythmia); format: in vivo, rat
Description: 60 to 120 μg per rat (5 to 10 μM).

[2] = test system: receptors of sweet tasting papillae; conditions: comparison value; cited from earlier work

Row | SMILES | Effect on diastolic pressure [1] | Sweetness relative to sugar [2]
1 | CSCC[C@H](NC(=O)[C@H](C)NC(=O)[C@@H](NC(=O)[C@@H]1CCCN1C(=O)[C@H](C)N)[C@@H](C)O)C(=O)N[C@@H](Cc1c[nH]c2ccccc12)C(=O)N1CCC[C@H]1C(=O)N[C@@H](C)C(=O)O [HP-1, Ala-Pro-Thr-Ala-Met-Trp-Pro-Ala] (H-APTAMWPA-OH) | does not increase diastolic pressure | –
2 | COC(=O)[C@H](Cc1ccccc1)NC(=O)[C@@H](N)CC(=O)O [aspartame] (H-Asp-Phe-OMe) | – | 160 times sweeter than sugar
